Data on 1 compound can be found in patent US20180230097A1, “PROCESS FOR PREPARATION OF APREMILAST AND NOVEL POLYMORPHS THEREOF” (LUPIN LIMITED, priority 2015, published 2018).

Data set [1] in a line: Solubility of Form M in various media. It counts as physicochemical. Particulars: water, hydrochloric acid, acetate Buffer, and phosphate Buffer at different pH.
The nature of data set [2]: Polymorph stability under temperature/humidity storage (PXRD, FIG. 15 and 16). Particulars: 25° C. to 40° C. temperature, 5% to 75% humidity (RH); FIG. 15 25° C./60% RH/2M, FIG. 16 40° C./75% RH/2M. The data set is classed as physicochemical. Here is the method:
The term “stable” with respect polymorph or to a drug dosage form, refers to the chemical and physical integrity of the polymorph or dosage unit and, when appropriate, the ability of the dosage unit to maintain protection against microbiological contamination.
The Form M of apremilast is stable at different set of conditions such as 25° C. to 40° C. temperature, 5% to 75% humidity (RH) for durations as depicted in FIG. 15 and FIG. 16.
Using a PANalytical X'Pert powder diffraction meter, the x-ray powder diffraction pattern was measured at room temperature using a Cu Ka filled tube (45 kV 40 mA) as the x-ray source. Data collection was done in 2theta continuous scan mode in the range of 3.5° to 40°.

Take `CCOc1cc(C(CS(C)(=O)=O)N2C(=O)c3cccc(NC(C)=O)c3C2=O)ccc1OC` (centres unmarked) [Form M]: in data set [1], the “solubility in various medium” value was “good solubility”. The stability of polymorph result in data set [2] is given as “stable”.
